Patent US7803374B2, “Targeted atherosclerosis treatment” (Barnes-Jewish Hospital, priority 2004, dated 2010)
Where two headings read alike, the source gives them in different places.

Assays:
[1] = In vitro dissolution: release of fumagillin from nanoparticles by dialysis; type: physicochemical; settings: generally, due to hydrophobic nature
Description: Fumagillin nanoparticle emulsions (250 μl) were dialyzed in 60,000 MW cutoff dialysis tubing against 3.5 ml of releasing medium (0.9% NaCl, 0.2 mg/ml human serum albumin and 0.05% sodium azide) and continuously agitated at 37° C. The releasing medium was replaced daily and analyzed for released fumagillin concentration. Fumagillin was analyzed by reverse-phase HPLC (Waters Corporation). Chromatography was performed using a Waters Novapak C18, 60 Å, 4 μm reversed-phase column (3.9×150 mm) with an isocratic 50% acetonitrile/0.05% of phosphoric acid mobile phase (1 ml/min at ambient temperature).

[2] = high dose; cited from earlier work
[3] = tested on: Apo E−/− mice; settings: cited from earlier work; for foam cell deposition or fibromuscular lesion development: early atherogenesis; for effectiveness in later treatment: later periods of treatment (32 to 48 weeks)
[4] = treated for 4 months (20 to 36 weeks)

Molecule | fumagillin released (general statement) [1] | side effects [2] | intimal vessels and atheroma expansion ([3]; 30 mg per kg every other day for 13 weeks) | foam cell deposition or fibromuscular lesion development [3] | effectiveness in later treatment [3] | intimal vessels and atheroma expansion [3, 4]
CO[C@@H]1[C@H](OC(=O)/C=C/C=C/C=C/C=C/C(=O)O)CC[C@]2(CO2)[C@H]1[C@@]1(C)O[C@@H]1CC=C(C)C [fumagillin] | < 10% | – | – | – | – | –
CO[C@@H]1[C@H](OC(=O)NC(=O)CCl)CC[C@]2(CO2)[C@H]1[C@@]1(C)O[C@@H]1CC=C(C)C [TNP-470] | – | serious side effects such as neurocognitive toxicity | reduction in intimal vessels and diminished atheroma expansion | Neither endostatin nor TNP-470 altered | less effective | reduced number of intimal vessels and diminished atheroma expansion
endostatin: anti-angiogenic agent (protein, UniProt P39060 1572-1754, looked up, Endostatin, anti-angiogenic agent) Endostatin: HSHRDFQPVLHLVALNSPLSGGMRGIRGADFQCFQQARAVGLAGTFRAFLSSRLQDLYSIVRRADRAAVPIVNLKDELLFPSWEALFSGSEGPLKPGARIFSFDGKDVLRHPTWPQKSVWHGSDPNGRRLTESYCETWRTEAPSATGQASSLLGGRLLGQSAASCHHAYIVLCIENSFMTASK | – | – | – | Neither endostatin nor TNP-470 altered | less effective | reduced number of intimal vessels and diminished atheroma expansion
